Reference: PubChem BioAssay (NCI)
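Protocol summary: plate cells (96-well), add compound at 5 concentrations, incubate 48 h, interpolate endpoints linearly. GI50: concentration for 50% inhibition of growth. The concentration for full growth arrest is given as TGI.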

Columns and labels:
Test in all cases: NCI anticancer screen, dose series, 48 h
SK-MEL-2 melanoma = tested on: SK-MEL-2 melanoma
TK-10 renal = tested on: TK-10 renal
HCT-15 colon = tested on: HCT-15 colon
COLO 205 colon = tested on: COLO 205 colon
EKVX NSCLC = tested on: EKVX NSCLC
OVCAR-8 ovarian = tested on: OVCAR-8 ovarian
SNB-75 CNS = tested on: SNB-75 CNS
LOX IMVI melanoma = tested on: LOX IMVI melanoma
NCI-H460 lung = tested on: NCI-H460 lung
NCI/ADR-RES ovarian = tested on: NCI/ADR-RES ovarian

| Compound | GI50 (SK-MEL-2 melanoma) [µM] | TGI (SK-MEL-2 melanoma) [µM] | GI50 (TK-10 renal) [µM] | TGI (TK-10 renal) [µM] | GI50 (HCT-15 colon) [µM] | TGI (HCT-15 colon) [µM] | GI50 (COLO 205 colon) [µM] | TGI (COLO 205 colon) [µM] | GI50 (EKVX NSCLC) [µM] | TGI (EKVX NSCLC) [µM] | GI50 (OVCAR-8 ovarian) [µM] | TGI (OVCAR-8 ovarian) [µM] | GI50 (SNB-75 CNS) [µM] | TGI (SNB-75 CNS) [µM] | GI50 (LOX IMVI melanoma) [µM] | TGI (LOX IMVI melanoma) [µM] | GI50 (NCI-H460 lung) [µM] | TGI (NCI-H460 lung) [µM] | GI50 (NCI/ADR-RES ovarian) [µM] | TGI (NCI/ADR-RES ovarian) [µM] |
| --- | --- | --- | --- | --- | --- | --- | --- | --- | --- | --- | --- | --- | --- | --- | --- | --- | --- | --- | --- | --- |
| N.N.NC(CS)C(=O)[O-].NC(CS)C(=O)[O-].[Pt+4] (centres undefined) | > 50 | > 50 | > 50 | > 50 | > 50 | > 50 | > 50 | > 50 | > 50 | > 50 | > 50 | > 50 | > 50 | > 50 | > 50 | > 50 | > 50 | > 50 | – | – |
| CC1=Cc2cc3[n-]c(cc4nc(cc5[n-]c(cc1n2)cc5C)C(C)=C4CCC(=O)O)c(CCC(=O)O)c3C.[Pd+2] | 18.7 | 44 | 24.9 | 52.9 | 18.4 | 42.5 | 16.8 | 41.6 | > 28.9 | > 54.6 | – | – | 6.8 | 29.9 | 15.7 | 39.6 | 33.5 | 59.2 | – | – |
| COC(=O)c1c(CC#N)cccc1CC#N | – | > 100 | – | – | – | > 100 | – | > 100 | – | > 100 | – | > 100 | – | > 100 | – | > 100 | – | > 100 | – | – |
| CC(C(=O)Oc1ccc2ccccc2c1-c1c(O)ccc2ccccc12)c1ccccc1 (centres undefined) | – | 29.7 | – | 32.8 | – | 27.2 | – | 33.4 | – | 37.3 | – | 50.2 | – | – | – | – | – | 27.6 | – | – |
| Cc1c2cc[nH]c(=O)c2cc2c(=O)c3cnccc3[nH]c12 | – | > 100 | – | > 100 | – | > 100 | – | > 100 | – | > 100 | – | > 100 | – | > 100 | – | > 100 | – | > 100 | – | – |
| O=C(NOCC1CC1)c1ccc(F)c(F)c1Nc1ccc(I)cc1Cl | 0.166 | 2.05 | 1.13 | 18.6 | 1.57 | > 32.7 | 0.0704 | 3.54 | – | – | 2.32 | 20.6 | 2.15 | > 45.2 | 0.727 | 13.2 | 2.42 | > 100 | 2.85 | > 47.9 |
| CN(c1ccccc1)C(c1ccccc1)C(O)c1ccccc1 (centres undefined) | – | 31.8 | – | 57.1 | – | 40.3 | – | 30.1 | – | 62.7 | – | 36 | – | 64.4 | – | 31.7 | – | 36.2 | – | – |
| O=S1(=O)C[C@@H](O)[C@H](O)CS1 | – | – | – | > 100 | – | – | – | > 100 | – | > 100 | – | > 100 | – | > 100 | – | > 100 | – | > 100 | – | – |
| CCOC(=O)C(C)c1cc(C2(C)OCCO2)c(C)o1 (centres undefined) | – | > 100 | – | > 100 | – | > 100 | – | > 100 | – | > 100 | – | > 100 | – | > 100 | – | > 100 | – | > 100 | – | – |
| CC(=O)OCC1OC(n2c(=O)n(-c3ccccc3)c(=O)c3ccccc32)C(OC(C)=O)C(OC(C)=O)C1OC(C)=O (centres undefined) | – | > 100 | – | > 100 | – | > 100 | – | > 100 | – | > 100 | – | > 100 | – | > 100 | – | > 100 | – | > 100 | – | – |
| COc1ccc(-c2nc(-c3ccccc3)c(-c3ccccc3)n2C2CC2)cc1OC1CCCC1 | 105 | > 165 | – | – | 7.26 | > 165 | 51.3 | > 165 | – | – | 66.6 | > 165 | 48.4 | > 165 | 15.1 | > 165 | 11 | > 165 | 58.6 | > 165 |
| O=c1cc(-c2ccccc2)nc2n1CCN2Cc1ccccc1 | 20.5 | 50.5 | 26.5 | 95.7 | 31.2 | > 100 | 26.1 | 68.1 | 30.5 | 96.1 | 47.2 | > 100 | 60.5 | > 100 | 29.8 | > 100 | 36 | > 100 | – | – |
| Cc1cc(C)nc(Nc2nc3ccc([N+](=O)[O-])cc3[nH]2)n1 | – | > 100 | – | > 100 | – | > 100 | – | > 100 | – | > 100 | – | > 100 | – | – | – | > 100 | – | > 100 | – | – |
| COc1cc(/C=C/C(=O)c2ccc(Cl)cc2)ccc1OS(=O)(=O)c1ccc(C)cc1 | 12.3 | 28.8 | – | – | 1.74 | 3.81 | 12.3 | 39.7 | – | – | 3.23 | 16 | 31.6 | > 100 | 1.93 | 3.67 | 17.3 | 72.4 | 9.38 | 37.7 |
| Nc1c(-c2nc3ccccc3[nH]2)sc(=S)n1-c1ccccc1 | – | > 100 | – | – | – | > 100 | – | > 100 | – | > 100 | – | > 100 | – | > 100 | – | – | – | > 100 | – | – |
| O=C(O)C12C3CCCC1C2CC3 (centres undefined) | – | > 100 | – | > 100 | – | > 100 | – | > 100 | – | > 100 | – | > 100 | – | > 100 | – | > 100 | – | > 100 | – | – |
| O=C1C(=O)N(c2ccc(Cl)c(Cl)c2)C(=O)C(=O)C1c1nc2ccccc2o1 | – | > 100 | – | > 100 | – | > 100 | – | > 100 | – | – | – | > 100 | – | > 100 | – | > 100 | – | > 100 | – | – |
| O=C1OC2(c3ccccc3Oc3ccccc32)c2ccccc21 | – | > 100 | – | > 100 | – | > 100 | – | > 100 | – | > 100 | – | > 100 | – | > 100 | – | > 100 | – | > 100 | – | – |
| COC(=O)C1=C(O)C(O)=C(C(=O)OC)C1 | – | > 100 | – | > 100 | – | > 100 | – | > 100 | – | > 100 | – | > 100 | – | > 100 | – | > 100 | – | > 100 | – | – |
| c1ccc(N=C2c3ccccc3C3=NCCCN32)cc1 | – | > 100 | – | > 100 | – | > 100 | – | > 100 | – | > 100 | – | > 100 | – | > 100 | – | > 100 | – | > 100 | – | – |
